Measurements taken from PMC9598282 (Antibiotics, 2022).
Values joined by “and” are separate entries in the source; they are usually repeats but may differ in a detail not shown here. Equal entries are not always repeated. Where two headings read alike, the source gives them in different places.

Experiments:
[1] = system: P. aeruginosa 114228; assay: microbe, parasite or virus in culture; format: cell-based, Pseudomonas aeruginosa; details: one value per checkerboard plate; for MIC: Pseudomonas aeruginosa, 114228, agent alone
Experimental: (§1) The adjuvant properties of the guanidinylated polymyxins were evaluated using the checkerboard assay as previously described. The bacterial solution was prepared as described in the antimicrobial susceptibility assay. The antibiotic of interest and the adjuvant were serially diluted two-fold along the x- and y-axis on a 96-well plate, respectively, resulting in varying concentrations of both agents in each well. Equal volumes of bacterial solution were added to the designated wells. The well consisting of bacterial solution served as the positive control, while the wells containing only media served as the negative control. The plate was then incubated at 37 °C for 18 h. After incubation, an Emax Plus microplate reader (Molecular Devices, Union City, CA, USA) was used to measure the OD at a wavelength of 590 nm to confirm the turbidity. The fractional inhibitory concentration (FIC) index was then determined to establish the relationship between the antibiotic and adjuvant. The FIC index corresponds to the sum of the FICs of the antibiotic and adjuvant. The FIC of each agent is calculated by dividing its MIC when it is used in combination by its MIC when used alone. FIC indices ≤0.5, 0.5 < x ≤ 4 and >4 indicate synergy, additivity and antagonism, respectively.

[2] = system: P. aeruginosa PAO1; assay: microbe, parasite or virus in culture; format: cell-based, Pseudomonas aeruginosa
Experimental: as §1

[3] = system: A. baumannii 92247; assay: microbe, parasite or virus in culture; format: cell-based, Acinetobacter baumannii; details: one value per checkerboard plate; for MIC: Acinetobacter baumannii, 92247, agent alone
Experimental: as §1

[4] = system: A. baumannii AB027; assay: microbe, parasite or virus in culture; format: cell-based, Acinetobacter baumannii; details: one value per checkerboard plate; for MIC: Acinetobacter baumannii, AB027, agent alone
Experimental: as §1

[5] = system: A. baumannii ATCC 17978; assay: microbe, parasite or virus in culture; format: cell-based, Acinetobacter baumannii; details: for MIC: Acinetobacter baumannii, ATCC17978, 18 h, agent alone, one value per checkerboard plate, read-out: MIC alone
Experimental: as §1

[6] = system: E. coli ATCC 25922; assay: microbe, parasite or virus in culture; format: cell-based, Escherichia coli; set-up: key to FIC index antibiotic + GCol / FIC index antibiotic + GPMB: sum of FICs; ≤0.5 synergy, 0.5–4 additivity, >4 antagonism; details: for MIC: Escherichia coli, ATCC25922, 18 h, agent alone, one value per checkerboard plate, read-out: MIC alone
Experimental: as §1

[7] = system: P. aeruginosa 101243; assay: Checkerboard assay; format: cell-based, Pseudomonas aeruginosa; details: one value per checkerboard plate; for MIC: Pseudomonas aeruginosa, 101243, agent alone
Experimental: as §1

[8] = system: P. aeruginosa P259-96918; assay: Checkerboard assay; format: cell-based, Pseudomonas aeruginosa; details: Pseudomonas aeruginosa, P25996918; agent alone, one value per checkerboard plate
Experimental: as §1

[9] = system: P. aeruginosa P262-101856; assay: Checkerboard assay; format: cell-based, Pseudomonas aeruginosa; details: one value per checkerboard plate; for MIC: Pseudomonas aeruginosa, P262101856, agent alone
Experimental: as §1

[10] = system: P. aeruginosa P264-104354; assay: Checkerboard assay; format: cell-based, Pseudomonas aeruginosa; details: one value per checkerboard plate
Experimental: as §1

[11] = system: A. baumannii AB031; assay: Checkerboard assay; format: cell-based, Acinetobacter baumannii; details: Acinetobacter baumannii, AB031, agent alone, one value per checkerboard plate
Experimental: as §1

[12] = system: E. coli 107115; assay: microbe, parasite or virus in culture; format: cell-based, Escherichia coli; details: Escherichia coli, 107115, agent alone, one value per checkerboard plate
Experimental: as §1

[13] = system: P. aeruginosa PA 107092; format: cell-based, Pseudomonas aeruginosa
Experimental: as §1

[14] = system: P. aeruginosa PA 109084; format: cell-based, Pseudomonas aeruginosa
Experimental: as §1

[15] = system: P. aeruginosa PA 86052; format: cell-based, Pseudomonas aeruginosa; details: one value per checkerboard plate
Experimental: as §1

[16] = system: P. aeruginosa PA 88949; format: cell-based, Pseudomonas aeruginosa; details: one value per checkerboard plate
Experimental: as §1

[17] = system: P. aeruginosa PA 107092; assay: Time-kill assay; format: cell-based, Pseudomonas aeruginosa; details: monotherapy, 8 μg/mL
Experimental: To study the time-dependent killing effects of the drug combinations, the time-kill kinetics were assessed. The time-kill assay was performed following the 8 μM (2 μg/mL) concentration of avibactam used in the checkerboard assay. […] This concentration also corresponds to the susceptibility breakpoint of both β-lactams.
For the preparation of the bacterial solution, an overnight grown culture was diluted in 0.85% saline solution and adjusted to 0.5 McFarland turbidity. […] The culture tubes were incubated at 37 °C, shaking at 250 rpm. At the appointed time intervals, a 100-μL aliquot was taken from each tube, serially diluted in phosphate-buffered saline (PBS) and plated on LB agar plates. The plates were incubated at 37 °C, and bacterial colonies were counted after 18 h. The bactericidal or bacteriostatic activity is determined based on the decrease in CFU over the time period. Bactericidal activity corresponds to ≥3 log10 reduction in CFU/mL, while bacteriostatic activity corresponds to <3 log10 reduction in CFU/mL.

[18] = system: A. baumannii 110193; assay: microbe, parasite or virus in culture; format: cell-based, Acinetobacter baumannii; details: one value per checkerboard plate
Experimental: as §1

[19] = system: E. coli 94393; assay: Checkerboard assay; format: cell-based, Escherichia coli; details: Escherichia coli, 94393, agent alone, one value per checkerboard plate
Experimental: as §1

[20] = system: E. coli 94474; assay: Checkerboard assay; format: cell-based, Escherichia coli; details: Escherichia coli, 94474, agent alone, one value per checkerboard plate
Experimental: as §1

[21] = system: E. cloacae 121187; assay: microbe, parasite or virus in culture; format: cell-based, Enterobacter cloacae; details: one value per checkerboard plate
Experimental: as §1

[22] = system: K. pneumoniae 113250; assay: Checkerboard assay; format: cell-based, Klebsiella pneumoniae; details: one value per checkerboard plate
Experimental: as §1

[23] = system: K. pneumoniae 113254; assay: Checkerboard assay; format: cell-based, Klebsiella pneumoniae; details: Klebsiella pneumoniae, 113254, agent alone, one value per checkerboard plate
Experimental: as §1

[24] = one value per checkerboard plate

Row | MIC [1] [µg/mL] | Absolute MIC of antibiotic at 4 μg/mL GCol [2] [µg/mL] | Absolute MIC of antibiotic at 4 μg/mL GPMB [2] [µg/mL] | MIC [3] [µg/mL] | MIC [4] [µg/mL] | Absolute MIC of antibiotic at 2 μg/mL GCol [5] [µg/mL] | Absolute MIC of antibiotic at 2 μg/mL GPMB [5] [µg/mL] | MIC [5] [µg/mL] | Absolute MIC of antibiotic at 2 μg/mL GCol [6] [µg/mL] | MIC [6] [µg/mL] | MIC [7] [µg/mL] | MIC [9] [µg/mL] | MIC [11] [µg/mL] | MIC [12] [µg/mL] | SMILES | also measured
1 | 16 | 0.5 | 0.25 | 128 | 1020 | 64 | 32 | 64 | 0.031 | 0.25 | 16 | 32 | 64 | 1020 | C[C@H]1[C@H](NC(=O)/C(=N\OC(C)(C)C(=O)O)c2csc(N)n2)C(=O)N1S(=O)(=O)O [Aztreonam] | MIC alone ([1]; agent alone): 8 µg/mL; MIC ([2]; Pseudomonas aeruginosa, PAO1, 18 h, agent alone, one value per checkerboard plate, read-out: MIC alone): 4 µg/mL; MIC alone ([3]; agent alone): 256 µg/mL; Absolute MIC of antibiotic at 2 μg/mL GPMB [6]: 0.016 µg/mL; FIC index antibiotic + GCol [6]: 0.188; MIC alone ([7]; agent alone): 32 µg/mL; MIC [8]: 32 µg/mL; MIC alone ([9]; agent alone): 64 µg/mL; MIC ([10]; Pseudomonas aeruginosa, P264104354, agent alone): 64 µg/mL; MIC alone ([10]; agent alone): 32 µg/mL; MIC antibiotic alone [13, 24]: 32 µg/mL and 64 µg/mL; MIC antibiotic alone ([13]; plates with 8 μM avibactam): 16 µg/mL and 8 µg/mL; MIC antibiotic alone [14, 24]: 64 µg/mL; MIC antibiotic alone ([14]; plates with 8 μM avibactam): 8 µg/mL; MIC antibiotic alone [15]: 64 µg/mL and 32 µg/mL; MIC antibiotic alone [16]: 16 µg/mL; log10 increase (bacterial growth) over 24 h [17]: 2 to 3 log10
2 | 64 | 16 | 2 | 8 | 8 | 32 | 0.5 | 32 | 0.25 | 32 | 1020 | 2050 | 16 | 2050 | CC[C@H]1OC(=O)[C@H](C)[C@@H](O[C@H]2C[C@@](C)(OC)[C@@H](O)[C@H](C)O2)[C@H](C)[C@@H](O[C@@H]2O[C@H](C)C[C@H](N(C)C)[C@H]2O)[C@](C)(O)C[C@@H](C)C(=O)[C@H](C)[C@@H](O)[C@]1(C)O [Erythromycin] | MIC ([18]; Acinetobacter baumannii, 110193, agent alone): 2 µg/mL; MIC alone ([18]; agent alone): 4 µg/mL; MIC alone ([4]; agent alone): 4 µg/mL; MIC [19]: 64 µg/mL; MIC [20]: 64 µg/mL; MIC ([21]; Enterobacter cloacae, 121187, agent alone): 1020 µg/mL; MIC alone ([21]; agent alone): 512 µg/mL; MIC ([22]; Klebsiella pneumoniae, 113250, agent alone): 32 µg/mL; MIC alone ([22]; agent alone): 64 µg/mL; MIC [23]: 64 µg/mL
